Test results reported in PubChem BioAssay AID248 (DTP/NCI, 2004).
“And” between values parts separate entries of the source, which are not always exact repeats. Identical values can stand only once. Inconclusive results and toxic doses are left out. Rule as the data show it: active = T/C of 150% or more; inactive = T/C below 125%.

System: L1210 leukemia ip in BDF1 mice, survival T/C
Experiment: NCI In Vivo Anticancer Drug Screen. Data for tumor model L1210 Leukemia (intraperitoneal) in B6D2F1 (BDF1) mice
Details: higher = longer survival
Procedure, shortened: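 Antitumor effect is assessed in tumor-bearing animals. Survival in the compound arm is compared with a vehicle-dosed control arm and expressed as their quotient.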

[1] = endpoint: mean survival time, dose: 100.0 mg/kg/injection, schedule: Q01DX009 (ip), vehicle: Klucel (hydroxypropylcellulose) (HPC)
[2] = endpoint: mean survival time, dose: 200.0 mg/kg/injection, schedule: Q01DX009 (ip), vehicle: Klucel (hydroxypropylcellulose) (HPC)
[3] = endpoint: mean survival time, dose: 400.0 mg/kg/injection, schedule: Q01DX009 (ip), vehicle: Klucel (hydroxypropylcellulose) (HPC)
[4] = endpoint: mean survival time, dose: 100.0 mg/kg/injection, schedule: Q04DX003 (ip), vehicle: Klucel (hydroxypropylcellulose) (HPC)
[5] = endpoint: mean survival time, dose: 200.0 mg/kg/injection, schedule: Q04DX003 (ip), vehicle: Klucel (hydroxypropylcellulose) (HPC)
[6] = endpoint: mean survival time, dose: 100.0 mg/kg/injection, schedule: Q04DX002 (ip), vehicle: Klucel (hydroxypropylcellulose) (HPC)
[7] = endpoint: mean survival time, dose: 200.0 mg/kg/injection, schedule: Q04DX002 (ip), vehicle: Klucel (hydroxypropylcellulose) (HPC)
[8] = endpoint: mean survival time, dose: 400.0 mg/kg/injection, schedule: Q04DX002 (ip), vehicle: Klucel (hydroxypropylcellulose) (HPC)
[9] = endpoint: mean survival time, dose: 50.0 mg/kg/injection, schedule: Q01DX009 (ip), vehicle: Klucel (hydroxypropylcellulose) (HPC)
[10] = endpoint: mean survival time, dose: 200.0 mg/kg/injection, schedule: Q01DX009 (ip), vehicle: saline with Tween-80
[11] = endpoint: mean survival time, dose: 100.0 mg/kg/injection, schedule: Q01DX009 (ip), vehicle: saline with Tween-80

Measured: T/C

O=CC(O)CO (stereo unspecified)
inactive: endpoint: mean survival time, dose: 62.5 mg/kg/injection, schedule: Q01DX009 (ip), vehicle: carboxymethylcellulose (CMC) 102 % of control | endpoint: mean survival time, dose: 108.0 mg/kg/injection, schedule: Q01DX Z (ip), vehicle: other 95 % of control | endpoint: mean survival time, dose: 125.0 mg/kg/injection, schedule: Q01DX001 (ip), vehicle: carboxymethylcellulose (CMC) 98 % of control | endpoint: mean survival time, dose: 125.0 mg/kg/injection, schedule: Q01DX009 (ip), vehicle: carboxymethylcellulose (CMC) 116 % of control | endpoint: mean survival time, dose: 180.0 mg/kg/injection, schedule: Q01DX Z (ip), vehicle: other 112 % of control | endpoint: mean survival time, dose: 250.0 mg/kg/injection, schedule: Q01DX001 (ip), vehicle: carboxymethylcellulose (CMC) 105 % of control | endpoint: mean survival time, dose: 250.0 mg/kg/injection, schedule: Q01DX009 (ip), vehicle: carboxymethylcellulose (CMC) 116 % of control | endpoint: mean survival time, dose: 300.0 mg/kg/injection, schedule: Q01DX Z (ip), vehicle: other 113 % of control | endpoint: mean survival time, dose: 500.0 mg/kg/injection, schedule: Q01DX001 (ip), vehicle: carboxymethylcellulose (CMC) 100 % of control | endpoint: mean survival time, dose: 500.0 mg/kg/injection, schedule: Q01DX009 (ip), vehicle: carboxymethylcellulose (CMC) 118 % of control | endpoint: mean survival time, dose: 500.0 mg/kg/injection, schedule: Q01DX Z (ip), vehicle: other 115 % of control | endpoint: mean survival time, dose: 833.0 mg/kg/injection, schedule: Q01DX Z (ip), vehicle: other 114 % of control | endpoint: mean survival time, dose: 1000.0 mg/kg/injection, schedule: Q01DX001 (ip), vehicle: carboxymethylcellulose (CMC) 110 % of control | endpoint: median survival time, dose: 352.0 mg/kg/injection, schedule: Q01DX005 (ip), vehicle: saline sonified 122 % of control | endpoint: median survival time, dose: 440.0 mg/kg/injection, schedule: Q01DX005 (ip), vehicle: other 118 % of control | endpoint: median survival time, dose: 440.0 mg/kg/injection, schedule: Q01DX005 (ip), vehicle: saline sonified 116 % of control | endpoint: median survival time, dose: 550.0 mg/kg/injection, schedule: Q01DX005 (ip), vehicle: saline sonified 122 % of control | endpoint: median survival time, dose: 688.0 mg/kg/injection, schedule: Q01DX005 (ip), vehicle: other 107 % of control | endpoint: median survival time, dose: 688.0 mg/kg/injection, schedule: Q01DX005 (ip), vehicle: saline sonified 111 % of control | endpoint: median survival time, dose: 860.0 mg/kg/injection, schedule: Q01DX005 (ip), vehicle: other 51 % of control | endpoint: median survival time, dose: 1053.0 mg/kg/injection, schedule: Q01DX001 (ip), vehicle: other 119 % of control | endpoint: median survival time, dose: 1053.0 mg/kg/injection, schedule: Q01DX001 (ip), vehicle: saline sonified 122 % of control | endpoint: median survival time, dose: 1170.0 mg/kg/injection, schedule: Q01DX001 (ip), vehicle: other 117 % of control | endpoint: median survival time, dose: 1170.0 mg/kg/injection, schedule: Q01DX001 (ip), vehicle: saline sonified 122 % of control | endpoint: median survival time, dose: 1300.0 mg/kg/injection, schedule: Q01DX001 (ip), vehicle: other 117 % of control | endpoint: median survival time, dose: 1300.0 mg/kg/injection, schedule: Q01DX001 (ip), vehicle: saline sonified 122 % of control | endpoint: median survival time, dose: 1444.0 mg/kg/injection, schedule: Q01DX001 (ip), vehicle: other 121 % of control | endpoint: median survival time, dose: 1444.0 mg/kg/injection, schedule: Q01DX001 (ip), vehicle: saline sonified 122 % of control | endpoint: median survival time, dose: 1604.0 mg/kg/injection, schedule: Q01DX001 (ip), vehicle: other 51 % of control | endpoint: median survival time, dose: 1782.0 mg/kg/injection, schedule: Q01DX001 (ip), vehicle: other 75 % of control

O=C(Nc1ccc(Cl)c(Cl)c1)OCCCl
inactive: endpoint: mean survival time, dose: 75.0 mg/kg/injection, schedule: Q01DX001 (ip), vehicle: saline 89 % of control | endpoint: mean survival time, dose: 150.0 mg/kg/injection, schedule: Q01DX001 (ip), vehicle: saline 109 % of control

Cc1ccc(N2C(=O)C3C(C2=O)C2(Cl)C(Cl)=C(Cl)C3(Cl)C2(Cl)Cl)cc1Cl (stereo unspecified)
inactive: [1] 94 % of control | [2] 87 % of control | [3] 92 % of control

Cc1ccccc1[P+](Cc1ccccc1)(c1ccccc1)c1ccccc1
inactive: endpoint: mean survival time, dose: 5.0 mg/kg/injection, schedule: Q01DX001 (ip), vehicle: saline 105 % of control | endpoint: mean survival time, dose: 10.0 mg/kg/injection, schedule: Q01DX001 (ip), vehicle: saline 103 % of control | endpoint: mean survival time, dose: 20.0 mg/kg/injection, schedule: Q01DX001 (ip), vehicle: saline 100 % of control

c1ccc2c(C3OCC4(CCC4)CO3)cccc2c1
inactive: [1] 91 % of control | [4] 91 % of control | [2] 96 % of control | [5] 100 % of control | [3] 97 % of control | endpoint: mean survival time, dose: 400.0 mg/kg/injection, schedule: Q04DX003 (ip), vehicle: Klucel (hydroxypropylcellulose) (HPC) 94 % of control

CC(C)(C)NS(=O)(=O)CCl
inactive: [6] 111 % of control | [7] 104 % of control | [8] 93 % of control

COc1ccc2nc(C)c(COC(C)=O)cc2c1
inactive: endpoint: mean survival time, dose: 100.0 mg/kg/injection, schedule: Q04DX003 (ip), vehicle: saline 100 % of control | endpoint: mean survival time, dose: 200.0 mg/kg/injection, schedule: Q04DX003 (ip), vehicle: saline 98 % of control | endpoint: mean survival time, dose: 400.0 mg/kg/injection, schedule: Q04DX003 (ip), vehicle: saline 105 % of control

CC(=O)Nc1ccc([I+]c2ccc([N+](=O)[O-])cc2)cc1
inactive: endpoint: mean survival time, dose: 6.25 mg/kg/injection, schedule: Q01DX009 (ip), vehicle: Klucel (hydroxypropylcellulose) (HPC) 90 % of control | endpoint: mean survival time, dose: 12.5 mg/kg/injection, schedule: Q01DX009 (ip), vehicle: Klucel (hydroxypropylcellulose) (HPC) 98 % of control | endpoint: mean survival time, dose: 25.0 mg/kg/injection, schedule: Q01DX009 (ip), vehicle: Klucel (hydroxypropylcellulose) (HPC) 104 % of control | [9] 106 % of control | [1] 101 % of control | [10] 109 % of control

CC(C)(C#N)NC(=O)NC(C)(C)C#N
inactive: endpoint: mean survival time, dose: 50.0 mg/kg/injection, schedule: Q01DX009 (ip), vehicle: saline with Tween-80 101 % of control | [11] 97 % of control | [10] 97 % of control

CC(C)(C)c1cc(C#N)cc(C(C)(C)C)c1O
inactive: [9] 96 % of control | [1] 103 % of control | [2] 96 % of control

Cc1cccc(OC(=O)Nc2ccc(Cl)cc2)c1
inactive: endpoint: mean survival time, dose: 100.0 mg/kg/injection, schedule: Q01DX001 (ip), vehicle: saline with Tween-80 93 % of control | [11] 89 % of control | [6] 88 % of control | endpoint: mean survival time, dose: 100.0 mg/kg/injection, schedule: Q04DX002 (ip), vehicle: saline with Tween-80 100 % of control and 92 % of control | endpoint: mean survival time, dose: 200.0 mg/kg/injection, schedule: Q01DX001 (ip), vehicle: saline with Tween-80 90 % of control | [10] 93 % of control | [7] 98 % of control | endpoint: mean survival time, dose: 200.0 mg/kg/injection, schedule: Q04DX002 (ip), vehicle: saline with Tween-80 107 % of control and 90 % of control | endpoint: mean survival time, dose: 400.0 mg/kg/injection, schedule: Q01DX001 (ip), vehicle: saline with Tween-80 90 % of control | [8] 109 % of control | endpoint: mean survival time, dose: 400.0 mg/kg/injection, schedule: Q04DX002 (ip), vehicle: saline with Tween-80 113 % of control and 114 % of control

O=C(Oc1c(Cl)cc(S(=O)(=O)F)cc1Cl)c1ccc([N+](=O)[O-])cc1
inactive: endpoint: mean survival time, dose: 100.0 mg/kg/injection, schedule: Q04DX002 (ip), vehicle: gum acacia 101 % of control | endpoint: mean survival time, dose: 200.0 mg/kg/injection, schedule: Q04DX002 (ip), vehicle: gum acacia 99 % of control | endpoint: mean survival time, dose: 400.0 mg/kg/injection, schedule: Q04DX002 (ip), vehicle: gum acacia 99 % of control

CC1=C/C(=N\N=C2/C=C(C)CC(C)(C)C2)CC(C)(C)C1
inactive: [1] 95 % of control | [2] 105 % of control | [3] 100 % of control

N/C(Cc1ccc(Cl)cc1)=N/O
inactive: [4] 104 % of control | [5] 102 % of control
